System: patients after acute myocardial infarction
Assay: TCM symptom score, total and single (chest pain, chest tightness, short breath, fatigue, palpitation, spontaneous perspiration, pale complexion), same clinical trial
Assay type: in vivo, human
Design: total score of TCM symptom, Mean / total score of TCM symptom, Min / total score of TCM symptom, Max / total score of TCM symptom, Md / change of total score of TCM symptom, Mean / change of total score of TCM symptom, Max / change of total score of TCM symptom, Md: scale not given here
Text: 3508 patients who were in accordance with the diagnostic standards of AMI for 28 days to 2 years and differentiated as Qi deficiency and blood stagnation syndrome by TCM were studied. 0.5 g Chinese medicine composition prepared by the method of EXAMPLE 1 (Coded as QSYQ) was administrated half an hour after meal, 3 times per day.
They included the overall survival time, angina pectoris score, TCM symptom score and life quality score, where angina pectoris score, TCM symptom score and life quality score were evaluated at randomization, in 1st, 3rd, 6th, 9th, 12th month after treatment and 18th month after follow-up.
The analysis method referred to the angina pectoris score.

CC(=O)Oc1ccccc1C(=O)O [Control group, aspirine]
change of pale complexion −1, number of patients (FAS, Follow-up-baseline): 39 | change of pale complexion −1, percent of patients (FAS, Follow-up-baseline): (2.75%) | change of palpitation 0, number of patients (FAS, Follow-up-baseline): 690 | change of palpitation 0, percent of patients (FAS, Follow-up-baseline): (48.46%) | change of palpitation 1, number of patients (FAS, Follow-up-baseline): 528 | change of palpitation 1, percent of patients (FAS, Follow-up-baseline): (37.08%) | change of palpitation 2, number of patients (FAS, Follow-up-baseline): 97 | change of palpitation 2, percent of patients (FAS, Follow-up-baseline): (6.81%) | change of palpitation 3, number of patients (FAS, Follow-up-baseline): 15 | change of palpitation 3, percent of patients (FAS, Follow-up-baseline): (1.05%) | change of palpitation −1, number of patients (FAS, Follow-up-baseline): 90 | change of palpitation −1, percent of patients (FAS, Follow-up-baseline): (6.32%) | change of palpitation −2, number of patients (FAS, Follow-up-baseline): 3 | change of palpitation −2, percent of patients (FAS, Follow-up-baseline): (0.21%) | change of palpitation −3, number of patients (FAS, Follow-up-baseline): 1 | change of palpitation −3, percent of patients (FAS, Follow-up-baseline): (0.07%) | change of short breath 0, % of patients (FAS, Follow-up-baseline): (52.21%) | change of short breath 0, number of patients (FAS, Follow-up-baseline): 744 | change of short breath 2, % of patients (FAS, Follow-up-baseline): (36.42%) | change of short breath 2, number of patients (FAS, Follow-up-baseline): 519 | change of short breath 4, % of patients (FAS, Follow-up-baseline): (5.47%) | change of short breath 4, number of patients (FAS, Follow-up-baseline): 78 | change of short breath 6, % of patients (FAS, Follow-up-baseline): (0.77%) | change of short breath 6, number of patients (FAS, Follow-up-baseline): 11 | change of short breath −2, % of patients (FAS, Follow-up-baseline): (4.98%) | change of short breath −2, number of patients (FAS, Follow-up-baseline): 71 | change of short breath −4, % of patients (FAS, Follow-up-baseline): (0.00%) | change of short breath −4, number of patients (FAS, Follow-up-baseline): 0 | change of short breath −6, % of patients (FAS, Follow-up-baseline): (0.14%) | change of short breath −6, number of patients (FAS, Follow-up-baseline): 2 | change of spontaneous perspiration 0, number of patients (FAS, Follow-up-baseline): 656 | change of spontaneous perspiration 0, percent of patients (FAS, Follow-up-baseline): (46.07%) | change of spontaneous perspiration 1, number of patients (FAS, Follow-up-baseline): 466 | change of spontaneous perspiration 1, percent of patients (FAS, Follow-up-baseline): (32.72%) | change of spontaneous perspiration 2, number of patients (FAS, Follow-up-baseline): 141 | change of spontaneous perspiration 2, percent of patients (FAS, Follow-up-baseline): (9.90%) | change of spontaneous perspiration 3, number of patients (FAS, Follow-up-baseline): 32 | change of spontaneous perspiration 3, percent of patients (FAS, Follow-up-baseline): (2.25%) | change of spontaneous perspiration −1, percent of patients (FAS, Follow-up-baseline): (8.36%) | change of spontaneous perspiration −2, number of patients (FAS, Follow-up-baseline): 8 | change of spontaneous perspiration −2, percent of patients (FAS, Follow-up-baseline): (0.56%) | change of spontaneous perspiration −3, number of patients (FAS, Follow-up-baseline): 2 | change of spontaneous perspiration −3, percent of patients (FAS, Follow-up-baseline): (0.14%) | change of total score of TCM symptom, Max (FAS, Follow-up-baseline): 27.00 | change of total score of TCM symptom, Md (FAS, Follow-up-baseline): −5.00 | change of total score of TCM symptom, Mean (FAS, Follow-up-baseline): −6.18 | change of total score of TCM symptom, Min (FAS, Follow-up-baseline): −29.00 | change of chest pain score 0, number of patients (Follow-up-baseline, FAS): 769 | change of chest pain score 0, percent of patients (Follow-up-baseline, FAS): (54.08%) | change of chest pain score 3, number of patients (Follow-up-baseline, FAS): 426 | change of chest pain score 3, percent of patients (Follow-up-baseline, FAS): (29.96%) | change of chest pain score 6, number of patients (Follow-up-baseline, FAS): 158 | change of chest pain score 6, percent of patients (Follow-up-baseline, FAS): (11.11%) | change of chest pain score 9, number of patients (Follow-up-baseline, FAS): 9 | change of chest pain score 9, percent of patients (Follow-up-baseline, FAS): (0.63%) | change of chest pain score −2, number of patients (Follow-up-baseline, FAS): 1 | change of chest pain score −2, percent of patients (Follow-up-baseline, FAS): (0.07%) | change of chest pain score −3, number of patients (Follow-up-baseline, FAS): 47 | change of chest pain score −3, percent of patients (Follow-up-baseline, FAS): (3.31%) | change of chest pain score −6, number of patients (Follow-up-baseline, FAS): 11 | change of chest pain score −6, percent of patients (Follow-up-baseline, FAS): (0.77%) | change of chest pain score −9, number of patients (Follow-up-baseline, FAS): 1 | change of chest pain score −9, percent of patients (Follow-up-baseline, FAS): (0.07%) | change of chest tightness score 0, number of patients (Follow-up-baseline, FAS): 728 | change of chest tightness score 0, percent of patients (Follow-up-baseline, FAS): (51.09%) | change of chest tightness score 1, number of patients (Follow-up-baseline, FAS): 1 | change of chest tightness score 1, percent of patients (Follow-up-baseline, FAS): (0.07%) | change of chest tightness score 3, number of patients (Follow-up-baseline, FAS): 544 | change of chest tightness score 3, percent of patients (Follow-up-baseline, FAS): (38.18%) | change of chest tightness score 6, number of patients (Follow-up-baseline, FAS): 87 | change of chest tightness score 6, percent of patients (Follow-up-baseline, FAS): (6.11%) | change of chest tightness score 9, number of patients (Follow-up-baseline, FAS): 5 | change of chest tightness score 9, percent of patients (Follow-up-baseline, FAS): (0.35%) | change of chest tightness score −3, number of patients (Follow-up-baseline, FAS): 55 | change of chest tightness score −3, percent of patients (Follow-up-baseline, FAS): (3.86%) | change of chest tightness score −6, number of patients (Follow-up-baseline, FAS): 4 | change of chest tightness score −6, percent of patients (Follow-up-baseline, FAS): (0.28%) | change of chest tightness score −9, number of patients (Follow-up-baseline, FAS): 1 | change of chest tightness score −9, percent of patients (Follow-up-baseline, FAS): (0.07%) | change of chest pain score 0, number of patients (Follow-up-baseline, PP): 750 | change of chest pain score 0, percent of patients (Follow-up-baseline, PP): (54.03%) | change of chest pain score 3, number of patients (Follow-up-baseline, PP): 417 | change of chest pain score 3, percent of patients (Follow-up-baseline, PP): (30.04%) | change of chest pain score 6, number of patients (Follow-up-baseline, PP): 155 | change of chest pain score 6, percent of patients (Follow-up-baseline, PP): (11.17%) | change of chest pain score 9, number of patients (Follow-up-baseline, PP): 8 | change of chest pain score 9, percent of patients (Follow-up-baseline, PP): (0.58%) | change of chest pain score −2, number of patients (Follow-up-baseline, PP): 1 | change of chest pain score −2, percent of patients (Follow-up-baseline, PP): (0.07%) | change of chest pain score −3, number of patients (Follow-up-baseline, PP): 47 | change of chest pain score −3, percent of patients (Follow-up-baseline, PP): (3.39%) | change of chest pain score −6, number of patients (Follow-up-baseline, PP): 9 | change of chest pain score −6, percent of patients (Follow-up-baseline, PP): (0.65%) | change of chest pain score −9, number of patients (Follow-up-baseline, PP): 1 | change of chest pain score −9, percent of patients (Follow-up-baseline, PP): (0.07%) | change of chest tightness score 0, number of patients (Follow-up-baseline, PP): 712 | change of chest tightness score 0, percent of patients (Follow-up-baseline, PP): (51.19%) | change of chest tightness score 1, number of patients (Follow-up-baseline, PP): 1 | change of chest tightness score 1, percent of patients (Follow-up-baseline, PP): (0.07%) | change of chest tightness score 3, number of patients (Follow-up-baseline, PP): 528 | change of chest tightness score 3, percent of patients (Follow-up-baseline, PP): (37.96%) | change of chest tightness score 6, number of patients (Follow-up-baseline, PP): 86 | change of chest tightness score 6, percent of patients (Follow-up-baseline, PP): (6.18%) | change of chest tightness score 9, number of patients (Follow-up-baseline, PP): 5 | change of chest tightness score 9, percent of patients (Follow-up-baseline, PP): (0.36%) | change of chest tightness score −3, number of patients (Follow-up-baseline, PP): 54 | change of chest tightness score −3, percent of patients (Follow-up-baseline, PP): (3.88%) | change of chest tightness score −6, number of patients (Follow-up-baseline, PP): 4 | change of chest tightness score −6, percent of patients (Follow-up-baseline, PP): (0.29%) | change of chest tightness score −9, number of patients (Follow-up-baseline, PP): 1 | change of chest tightness score −9, percent of patients (Follow-up-baseline, PP): (0.07%) | chest pain score 0, number of patients (Follow-up, FAS): 754 | chest pain score 0, percent of patients (Follow-up, FAS): (52.84%) | chest pain score 2, number of patients (Follow-up, FAS): 1 | chest pain score 2, percent of patients (Follow-up, FAS): (0.07%) | chest pain score 3, number of patients (Follow-up, FAS): 479 | chest pain score 3, percent of patients (Follow-up, FAS): (33.57%) | chest pain score 6, number of patients (Follow-up, FAS): 192 | chest pain score 6, percent of patients (Follow-up, FAS): (13.45%) | chest pain score 9, number of patients (Follow-up, FAS): 1 | chest pain score 9, percent of patients (Follow-up, FAS): (0.07%) | chest tightness score 0, number of patients (Follow-up, FAS): 754 | chest tightness score 0, percent of patients (Follow-up, FAS): (52.84%) | chest tightness score 2, number of patients (Follow-up, FAS): 1
